The values that follow come from patent US20230265116A1, “DEGRADATION OF (EGFR) BY CONJUGATION OF EGFR INHIBITORS WITH E3 LIGASE LIGAND AND METHODS OF USE” (BEIGENE, LTD., priority 2020, published 2023).

Molecules are shown by their SMILES. Read-outs that look alike come from different tables or passages of the source.

Type in all cases: cell-based
In one test the target is T1, EGFR WT (BaF3 WT cells) (Homo sapiens, UniProt P00533).
T1 construct: expressed in transfected cells; host or cells: BaF3
The test can be described thus: EGFR degradation HTRF assay, BaF3 WT cells. How it is done:
BaF3 WT(wild type), BaF3-LTC(L858R/T790M/C797S) and BaF3-DTC(Del19/T790M/C797S) cells are treated with compounds diluted in 0.2% DMSO cell culture medium and incubate for 16h, 37° C., 5% CO2, H1975-#36, H1975-#28, H1975-#23 and HCC827 cells are treated with compounds diluted in 0.2% DMSO cell culture medium on day 2, incubate for 16h, 37° C., 5% CO2.the final concentriation of compounds in all assay is start with 10 uM, 5-fold dilution, total 8 doses were included.
After 16h treatment, add HTRF lysis buffer to each well; seal the plate and incubate 1 hour at room temperature on a plate shaker; Once the cells are lysed, 16 μL of cell lysate are transferred to a PE 384-well HTRF detection plate; 4 μL of pre-mixed HTRF antibodies are added to each well; Cover the plate with a plate sealer, spin 1000 rpm for 1 min, Incubate overnight at room temperature; Read on BMG PheraStar with HTRF protocol (337 nm-665 nm-620 nm).
The inhibition (degradation) percentage of the compound was calculated by the following equation: Inhibition percentage of Compound=100-100×(Signal-low control)/(High control-low control), wherein signal=each test compound group
High control=Cell group with added DMSO and without compound, indicating microplate readings without EGFR degradation;
Dmax is the maximum percentage of inhibition (degradation).
The IC50 (DC50) value of a compound can be obtained by fitting the following equation
Y=Bottom+(TOP−Bottom)/(1+((IC50/X)^hillslope))
Wherein, X and Y are known values, and IC50, Hillslope, Top and Bottom are the parameters obtained by fitting with software. Y is the inhibition percentage (calculated from the equation), X is the concentration of the compound; IC50 is the concentration of the compound when the 50% inhibition is reached. The smaller the IC50 value is, the stronger the inhibitory ability of the compound is. Vice versa, the higher the IC50 value is, the weaker the inhibitory ability of the compound is; Hillslope represents the slope of the fitted curve, generally around 1*; Bottom represents the minimum value of the curve obtained by data fitting, which is generally 0%±20%; Top represents the maximum value of the curve obtained by data fitting, which is generally 100%±20%. The experimental data were fitted by calculating and analyzing with Dotmatics data analysis software.

Test [1] concerns the target T2, EGFR L858R/T790M/C797S (BaF3-LTC cells) (Homo sapiens, UniProt P00533, C797S/L858R/T790M).
T2 construct: expressed in transfected cells; host or cells: BaF3
The test can be described thus: EGFR degradation HTRF assay, BaF3-LTC cells. The settings on record: BaF3-LTC, 16h treatment; for Dmax: maximum percentage of degradation, read-out: LTC Dmax (%); for DC50: read-out: LTC DC50. The procedure, abridged:
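EGFR remaining after a 16 h, 37 °C exposure (8 doses, 5-fold steps from 10 uM final, 0.2% DMSO) was quantified by HTRF antibodies in cell lysate. Percent inhibition relative to DMSO control was fitted by four-parameter logistic to give DC50; Dmax denotes maximal degradation.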

Test [2] has as its target T3, EGFR L858R/T790M (H1975-clone #36, homozygous) (Homo sapiens, UniProt P00533, L858R/T790M).
T3 construct: designed to specifically target WT EGFR but preserve the L858R/T790M copy; host or cells: H1975-clone #36
The test can be described thus: EGFR degradation HTRF assay, H1975-clone #36 cells. The settings on record: H1975 #36, 16h treatment; for Dmax: NCI-H1975, maximum percentage of degradation. The procedure, abridged: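 Eight-point, 5-fold series starting at 10 uM (0.2% DMSO) applied for 16 h, 37 °C, to a WT-EGFR-knockout H1975 clone carrying only L858R/T790M. Lysates read by HTRF overnight. Degradation percentage relative to DMSO control fitted for DC50, with Dmax as maximum degradation.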

In a further test the target is T4, EGFR (HCC827 cells) (Homo sapiens, UniProt P00533, DEL746-750).
T4 construct: endogenous in cells; host or cells: HCC827
The test can be described thus: EGFR degradation HTRF assay, HCC827 cells. The settings on record: HCC827, 16h treatment; for Dmax: maximum percentage of degradation. The method, boiled down: (§1)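 Cells treated 16 h at 37 °C, 5% CO2 in medium with 0.2% DMSO; top final concentration 10 uM, 5-fold dilution, 8 doses. Lysates read by HTRF (665/620 nm); degradation % versus DMSO high control, DC50 from four-parameter fit, Dmax as maximal degradation.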

Test [3] has as its system EGFR Del19/T790M/C797S (BaF3-DTC cells). The test can be described thus: EGFR degradation HTRF assay, BaF3-DTC cells. The note with it: for DTC Dmax (%): maximum percentage of degradation. The method, boiled down:
as §1

Setting [4] is: BaF3 WT, 16h treatment, maximum percentage of degradation, read-out: WT Dmax (%).
[5] abbreviates: 16h treatment, read-out: DTC DC50.

T1 sequence (P00533 25-1210): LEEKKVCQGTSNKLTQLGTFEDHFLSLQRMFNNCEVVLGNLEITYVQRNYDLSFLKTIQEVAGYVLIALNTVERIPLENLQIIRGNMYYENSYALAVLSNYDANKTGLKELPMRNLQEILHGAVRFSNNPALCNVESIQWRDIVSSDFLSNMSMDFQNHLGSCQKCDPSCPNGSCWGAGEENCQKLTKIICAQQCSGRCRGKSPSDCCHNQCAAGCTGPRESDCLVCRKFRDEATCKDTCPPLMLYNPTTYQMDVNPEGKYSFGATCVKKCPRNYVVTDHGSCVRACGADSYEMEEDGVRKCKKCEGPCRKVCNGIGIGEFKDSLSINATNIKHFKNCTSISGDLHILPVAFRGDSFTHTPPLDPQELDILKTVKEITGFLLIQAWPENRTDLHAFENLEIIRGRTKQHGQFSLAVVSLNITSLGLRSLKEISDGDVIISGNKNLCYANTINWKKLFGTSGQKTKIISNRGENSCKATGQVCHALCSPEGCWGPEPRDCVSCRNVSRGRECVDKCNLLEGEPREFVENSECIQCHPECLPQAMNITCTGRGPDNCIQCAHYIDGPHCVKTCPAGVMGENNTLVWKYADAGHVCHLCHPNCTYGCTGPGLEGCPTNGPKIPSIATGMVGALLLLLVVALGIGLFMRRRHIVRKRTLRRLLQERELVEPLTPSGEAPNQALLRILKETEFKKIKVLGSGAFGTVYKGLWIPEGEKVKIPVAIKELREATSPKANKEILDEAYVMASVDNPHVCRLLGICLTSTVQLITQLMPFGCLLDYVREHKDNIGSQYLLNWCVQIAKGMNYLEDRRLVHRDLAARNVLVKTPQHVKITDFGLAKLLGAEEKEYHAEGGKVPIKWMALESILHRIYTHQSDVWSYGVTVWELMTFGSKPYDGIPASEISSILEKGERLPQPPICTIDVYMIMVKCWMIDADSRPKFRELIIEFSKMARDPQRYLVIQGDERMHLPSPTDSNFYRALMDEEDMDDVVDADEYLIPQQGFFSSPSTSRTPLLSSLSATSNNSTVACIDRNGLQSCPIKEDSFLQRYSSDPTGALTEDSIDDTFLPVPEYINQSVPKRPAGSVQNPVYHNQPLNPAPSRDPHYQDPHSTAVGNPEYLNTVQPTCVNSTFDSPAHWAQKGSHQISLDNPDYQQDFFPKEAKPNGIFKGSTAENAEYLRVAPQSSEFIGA
T2 sequence (P00533 25-1210 T790M/C797S/L858R): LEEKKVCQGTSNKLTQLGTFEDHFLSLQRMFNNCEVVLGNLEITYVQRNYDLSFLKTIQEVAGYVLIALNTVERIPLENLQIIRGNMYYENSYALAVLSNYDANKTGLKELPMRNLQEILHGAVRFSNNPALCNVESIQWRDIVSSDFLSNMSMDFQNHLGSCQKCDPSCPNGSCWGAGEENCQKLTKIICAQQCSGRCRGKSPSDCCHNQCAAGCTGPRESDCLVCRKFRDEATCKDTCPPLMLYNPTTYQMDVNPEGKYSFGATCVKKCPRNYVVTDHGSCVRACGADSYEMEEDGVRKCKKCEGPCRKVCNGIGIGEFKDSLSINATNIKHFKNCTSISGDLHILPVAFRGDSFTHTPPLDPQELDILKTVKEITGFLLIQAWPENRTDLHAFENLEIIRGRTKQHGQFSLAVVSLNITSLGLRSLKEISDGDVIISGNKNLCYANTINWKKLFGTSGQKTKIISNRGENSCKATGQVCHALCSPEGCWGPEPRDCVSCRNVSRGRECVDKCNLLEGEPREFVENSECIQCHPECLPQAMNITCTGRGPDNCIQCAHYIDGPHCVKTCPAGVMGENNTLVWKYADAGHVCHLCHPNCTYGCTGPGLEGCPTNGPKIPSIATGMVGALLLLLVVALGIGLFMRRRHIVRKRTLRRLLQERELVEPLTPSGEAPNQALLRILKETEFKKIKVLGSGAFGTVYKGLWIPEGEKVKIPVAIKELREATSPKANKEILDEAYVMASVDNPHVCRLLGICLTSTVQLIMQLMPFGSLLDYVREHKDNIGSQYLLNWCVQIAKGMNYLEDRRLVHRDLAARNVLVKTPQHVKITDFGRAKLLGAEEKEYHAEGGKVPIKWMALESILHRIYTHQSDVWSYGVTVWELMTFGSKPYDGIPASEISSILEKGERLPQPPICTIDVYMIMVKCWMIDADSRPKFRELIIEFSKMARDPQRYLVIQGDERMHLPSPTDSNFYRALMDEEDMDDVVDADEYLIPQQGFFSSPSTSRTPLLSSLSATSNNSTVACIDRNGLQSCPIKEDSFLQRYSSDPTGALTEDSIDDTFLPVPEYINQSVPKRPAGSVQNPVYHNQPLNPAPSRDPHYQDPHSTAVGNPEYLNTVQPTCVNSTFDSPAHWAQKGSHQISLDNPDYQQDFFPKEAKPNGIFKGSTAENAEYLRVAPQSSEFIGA
T3 sequence (P00533 25-1210 T790M/L858R): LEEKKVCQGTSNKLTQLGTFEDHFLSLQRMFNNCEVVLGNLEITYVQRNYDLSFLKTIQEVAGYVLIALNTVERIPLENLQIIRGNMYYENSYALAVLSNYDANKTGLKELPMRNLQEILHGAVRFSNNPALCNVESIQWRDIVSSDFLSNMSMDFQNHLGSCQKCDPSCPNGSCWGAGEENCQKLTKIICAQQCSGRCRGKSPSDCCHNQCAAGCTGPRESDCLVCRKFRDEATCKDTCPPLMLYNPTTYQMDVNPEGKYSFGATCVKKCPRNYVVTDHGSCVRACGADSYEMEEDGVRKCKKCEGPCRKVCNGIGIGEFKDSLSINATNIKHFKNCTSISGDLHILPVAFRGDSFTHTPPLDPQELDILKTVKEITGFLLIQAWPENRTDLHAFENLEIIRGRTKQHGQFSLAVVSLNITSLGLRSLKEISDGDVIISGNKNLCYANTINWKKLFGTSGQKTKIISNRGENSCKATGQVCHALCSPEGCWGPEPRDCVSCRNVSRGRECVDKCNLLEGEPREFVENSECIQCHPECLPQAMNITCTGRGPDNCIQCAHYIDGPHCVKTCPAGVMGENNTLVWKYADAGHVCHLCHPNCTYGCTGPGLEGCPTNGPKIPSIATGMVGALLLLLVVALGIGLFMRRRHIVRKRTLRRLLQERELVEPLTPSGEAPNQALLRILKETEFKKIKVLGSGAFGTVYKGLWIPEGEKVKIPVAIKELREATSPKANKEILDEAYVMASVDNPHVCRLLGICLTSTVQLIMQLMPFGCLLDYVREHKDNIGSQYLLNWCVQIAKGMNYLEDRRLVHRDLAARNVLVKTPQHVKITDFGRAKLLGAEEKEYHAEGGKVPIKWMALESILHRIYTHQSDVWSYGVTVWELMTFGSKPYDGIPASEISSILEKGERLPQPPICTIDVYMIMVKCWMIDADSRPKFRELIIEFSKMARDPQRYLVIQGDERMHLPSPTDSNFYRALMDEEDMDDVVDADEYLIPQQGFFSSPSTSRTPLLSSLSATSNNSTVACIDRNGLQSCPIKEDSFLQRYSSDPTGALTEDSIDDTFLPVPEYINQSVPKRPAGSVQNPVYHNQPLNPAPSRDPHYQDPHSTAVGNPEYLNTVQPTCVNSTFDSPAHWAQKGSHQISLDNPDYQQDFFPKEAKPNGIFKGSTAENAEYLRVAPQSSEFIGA
T4 sequence (P00533 with tags, fused parts or gaps DEL746-750): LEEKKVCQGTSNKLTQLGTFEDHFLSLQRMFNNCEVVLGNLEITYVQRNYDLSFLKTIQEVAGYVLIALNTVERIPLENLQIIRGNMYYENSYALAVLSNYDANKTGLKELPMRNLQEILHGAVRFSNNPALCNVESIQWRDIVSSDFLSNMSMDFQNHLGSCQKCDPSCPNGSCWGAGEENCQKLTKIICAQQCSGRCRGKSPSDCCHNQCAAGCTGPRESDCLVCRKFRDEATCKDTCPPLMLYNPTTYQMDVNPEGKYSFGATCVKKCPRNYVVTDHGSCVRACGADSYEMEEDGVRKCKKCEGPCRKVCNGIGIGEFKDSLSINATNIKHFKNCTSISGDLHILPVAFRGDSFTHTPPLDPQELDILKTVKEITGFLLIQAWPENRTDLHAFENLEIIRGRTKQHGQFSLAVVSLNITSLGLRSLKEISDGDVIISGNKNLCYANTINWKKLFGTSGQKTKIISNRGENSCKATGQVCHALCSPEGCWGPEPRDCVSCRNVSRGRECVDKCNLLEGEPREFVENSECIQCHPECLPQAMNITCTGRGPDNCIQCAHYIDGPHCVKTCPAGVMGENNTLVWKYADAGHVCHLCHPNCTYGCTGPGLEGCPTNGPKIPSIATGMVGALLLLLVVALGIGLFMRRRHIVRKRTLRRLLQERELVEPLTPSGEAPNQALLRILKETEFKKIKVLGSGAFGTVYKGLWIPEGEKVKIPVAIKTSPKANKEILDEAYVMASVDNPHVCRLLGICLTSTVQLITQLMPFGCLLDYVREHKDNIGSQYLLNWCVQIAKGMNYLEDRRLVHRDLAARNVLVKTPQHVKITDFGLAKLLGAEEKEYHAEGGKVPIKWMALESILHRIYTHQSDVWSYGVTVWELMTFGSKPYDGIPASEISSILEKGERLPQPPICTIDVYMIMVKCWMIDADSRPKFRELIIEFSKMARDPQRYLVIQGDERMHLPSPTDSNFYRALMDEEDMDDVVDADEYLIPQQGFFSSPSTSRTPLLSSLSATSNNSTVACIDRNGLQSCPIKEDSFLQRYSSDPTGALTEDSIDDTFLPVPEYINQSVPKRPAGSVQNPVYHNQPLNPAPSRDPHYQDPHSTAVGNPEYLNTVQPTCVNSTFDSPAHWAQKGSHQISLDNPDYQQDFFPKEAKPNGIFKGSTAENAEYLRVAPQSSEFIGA

Turning to `CCc1cc(Nc2ncc(Br)c(Nc3ccc4nccnc4c3P(C)(C)=O)n2)c(OC)cc1N1CCC(N2CCN(CCc3ccc(C4CCC(=O)NC4=O)cc3)CC2)CC1` (stereo not shown) [Example 1, 3-(4-(2-(4-(1-(4-((5-bromo-4-((5-(dimethylphosphoryl)quinoxalin-6-yl)amino)pyrimidin-2-yl)amino)-2-ethyl-5-methoxyphenyl)piperidin-4-yl)piperazin-1-yl)ethyl)phenyl)piperidine-2,6-dione], the DC50 on EGFR WT (BaF3 WT cells) (BaF3 WT, 16h treatment) is > 10000 nM; in test [2] it was 7.22 nM; at EGFR (HCC827 cells) it was 3.6 nM. The Dmax worked out at 49.2% on EGFR WT (BaF3 WT cells) (setting [4]), 89.3% in test [1], 60.8% in test [2] and 86.9% on EGFR (HCC827 cells).

On to `CCc1cc(Nc2ncc(Br)c(Nc3ccc4nccnc4c3P(C)(C)=O)n2)c(OC)cc1N1CCC(N2CCN(CCc3ccc(C4CCC(=O)NC4=O)c(F)c3)CC2)CC1` (stereo not shown) [Example 5, 3-(4-(2-(4-(1-(4-((5-bromo-4-((5-(dimethylphosphoryl)quinoxalin-6-yl)amino)pyrimidin-2-yl)amino)-2-ethyl-5-methoxyphenyl)piperidin-4-yl)piperazin-1-yl)ethyl)-2-fluorophenyl)piperidine-2,6-dione], for which the DC50 on EGFR WT (BaF3 WT cells) (BaF3 WT, 16h treatment) is > 10000 nM; in test [3] (setting [5]) it was 4.96 nM; in test [1], 13.1 nM; in test [2], 4.66 nM; at EGFR (HCC827 cells), 2.56 nM. The Dmax was 47.9% at EGFR WT (BaF3 WT cells) (setting [4]), 90.4% in test [1], 84.1% in test [2] and 83.9% on EGFR (HCC827 cells). In test [3] (16h treatment), the “DTC Dmax (%)” value worked out at 96.75%.

For the molecule `CCc1cc(Nc2ncc(Br)c(Nc3ccc4nccnc4c3P(C)(C)=O)n2)c(OC)cc1N1CCC(N2CCN(CCCCCc3ccc(C4CCC(=O)NC4=O)cc3)CC2)CC1` (stereo not shown) [Example 7, 3-(4-(5-(4-(1-(4-((5-bromo-4-((5-(dimethylphosphoryl)quinoxalin-6-yl)amino)pyrimidin-2-yl)amino)-2-ethyl-5-methoxyphenyl)piperidin-4-yl)piperazin-1-yl)pentyl)phenyl)piperidine-2,6-dione], the DC50 is > 10000 nM on EGFR WT (BaF3 WT cells) (BaF3 WT, 16h treatment); 18.2 nM in test [3] (setting [5]); 36.4 nM in test [1]; > 156 nM in test [2]; 3.95 nM at EGFR (HCC827 cells). Also, the Dmax was found to be 41.9% at EGFR WT (BaF3 WT cells) (setting [4]), 90.5% in test [1], 49% in test [2] and 74.3% on EGFR (HCC827 cells). Also, in test [3] (16h treatment), the “DTC Dmax (%)” value was 95.15%.

`CCc1cc(Nc2ncc(Br)c(Nc3ccc4nccnc4c3P(C)(C)=O)n2)c(OC)cc1N1CCC(N2CCN(CCC3CCN(c4ccc(C5CCC(=O)NC5=O)cc4)CC3)CC2)CC1` (stereo not shown) [Example 23, 3-(4-(4-(2-(4-(1-(4-((5-bromo-4-((5-(dimethylphosphoryl)quinoxalin-6-yl)amino)pyrimidin-2-yl)amino)-2-ethyl-5-methoxyphenyl)piperidin-4-yl)piperazin-1-yl)ethyl)piperidin-1-yl)phenyl)piperidine-2,6-dione]: the DC50 was > 10000 nM at EGFR WT (BaF3 WT cells) (BaF3 WT, 16h treatment); 13.3 nM in test [3] (setting [5]); 25.6 nM in test [1]; 14.1 nM in test [2]; 2.05 nM at EGFR (HCC827 cells). The Dmax on EGFR WT (BaF3 WT cells) (setting [4]) was 14.6%; in test [1], 89%; in test [2], 65.5%; on EGFR (HCC827 cells), 93.4%. The “DTC Dmax (%)” value in test [3] (16h treatment) is given as 95.73%.

As to `CCc1cc(Nc2ncc(Br)c(Nc3ccc4nccnc4c3P(C)(C)=O)n2)c(OC)cc1N1CCC(N2CCN(CCC3CCN(c4ccc(C5CCC(=O)NC5=O)c(C#N)c4)CC3)CC2)CC1` (stereo not shown) [Example 34, 5-(4-(2-(4-(1-(4-((5-bromo-4-((5-(dimethylphosphoryl)quinoxalin-6-yl)amino)pyrimidin-2-yl)amino)-2-ethyl-5-methoxyphenyl)piperidin-4-yl)piperazin-1-yl)ethyl)piperidin-1-yl)-2-(2,6-dioxopiperidin-3-yl)benzonitrile], the DC50 at EGFR WT (BaF3 WT cells) (BaF3 WT, 16h treatment) is > 10000 nM; in test [3] (setting [5]) it was 15.1 nM; in test [1], 21.6 nM; in test [2], 8.6 nM; at EGFR (HCC827 cells) it was 6.2 nM. Also, the Dmax on EGFR WT (BaF3 WT cells) (setting [4]) came to 26.2%; in test [1], 81.2%; in test [2], 71%; on EGFR (HCC827 cells) it was 80.8%. Also, the “DTC Dmax (%)” value in test [3] (16h treatment) turned out to be 82.04%.

On to `CCc1cc(Nc2ncc(Br)c(Nc3ccc4nccnc4c3P(C)(C)=O)n2)c(OC)cc1N1CCC(N2CCN(C(=O)C3CCN(CC4CCN(c5ccc6c(c5)C(=O)N(C5CCC(=O)NC5=O)C6=O)CC4)CC3)CC2)CC1` (stereo not shown) [Example 63, 5-(4-((4-(4-(1-(4-((5-bromo-4-((5-(dimethylphosphoryl)quinoxalin-6-yl)amino)pyrimidin-2-yl)amino)-2-ethyl-5-methoxyphenyl)piperidin-4-yl)piperazine-1-carbonyl)piperidin-1-yl)methyl)piperidin-1-yl)-2-(2,6-dioxopiperidin-3-yl)isoindoline-1,3-dione], for which the DC50 on EGFR WT (BaF3 WT cells) (BaF3 WT, 16h treatment) is > 10000 nM; in test [3] (setting [5]), 281 nM; in test [1], > 2000 nM; on EGFR (HCC827 cells), 1.74 nM. The Dmax on EGFR WT (BaF3 WT cells) (setting [4]) was 3.27%; in test [1], 38.5%; at EGFR (HCC827 cells), 86.3%. Also, the “DTC Dmax (%)” value in test [3] (16h treatment) is on record as 52.42%.

Consider `CCc1cc(Nc2ncc(Br)c(Nc3ccc4nccnc4c3P(C)(C)=O)n2)c(OC)cc1N1CCC(N2CCN(CCC3CCN(c4ccc5c(c4)CN(C4CCC(=O)NC4=O)C5=O)CC3)CC2)CC1` (stereo not shown) [Example 70, 3-(5-(4-(2-(4-(1-(4-((5-bromo-4-((5-(dimethylphosphoryl)quinoxalin-6-yl)amino)pyrimidin-2-yl)amino)-2-ethyl-5-methoxyphenyl)piperidin-4-yl)piperazin-1-yl)ethyl)piperidin-1-yl)-1-oxoisoindolin-2-yl)piperidine-2,6-dione], for which the DC50 is > 10000 nM on EGFR WT (BaF3 WT cells) (BaF3 WT, 16h treatment); 8.49 nM in test [3] (setting [5]); 12.2 nM in test [1]. Moreover, the Dmax at EGFR WT (BaF3 WT cells) (setting [4]) was determined as 26.1%; in test [1] it was 95%. Moreover, the “DTC Dmax (%)” value in test [3] (16h treatment) turned out to be 91.36%.

With `CCc1cc(Nc2ncc(Br)c(Nc3ccc4nccnc4c3P(C)(C)=O)n2)c(OC)cc1N1CCC(N2CCN(CCN(C)c3ccc4c(c3)CN(C3CCC(=O)NC3=O)C4=O)CC2)CC1` (stereo not shown) [Example 71, 3-(5-((2-(4-(1-(4-((5-bromo-4-((5-(dimethylphosphoryl)quinoxalin-6-yl)amino)pyrimidin-2-yl)amino)-2-ethyl-5-methoxyphenyl)piperidin-4-yl)piperazin-1-yl)ethyl)(methyl)amino)-1-oxoisoindolin-2-yl)piperidine-2,6-dione], the Dmax at EGFR WT (BaF3 WT cells) (BaF3, read-out: WT Dmax (%)) was 31.4%; in test [1], 80%. The DC50 at EGFR WT (BaF3 WT cells) (BaF3 WT, 16h treatment) is > 10000 nM; in test [3] (read-out: DTC DC50, 16h treatment), 7.52 nM; in test [1], 11.5 nM. The “DTC Dmax (%)” value in test [3] (16h treatment) was found to be 81.19%.
